Assay results reported in US8802675B2, “Neuroprotective multifunctional compounds and pharmaceutical compositions comprising them” (priority 2009, dated 2014).

How the values were obtained:
[1] = biological target: T1, rat brain cholinesterase (total ChE) (Rattus norvegicus, UniProt P37136); experiment: Kinetics of irreversible cholinesterase inhibition (Kitz-Wilson); assay type: biochemical
T1 construct: rows headed: Ki (dissociation constant for EI); other: rat brain total ChE; mean of 3-4 experiments; k+2 (carbamylation rate constant); other: from ki; rate of carba
T1 sequence (P37136 32-614): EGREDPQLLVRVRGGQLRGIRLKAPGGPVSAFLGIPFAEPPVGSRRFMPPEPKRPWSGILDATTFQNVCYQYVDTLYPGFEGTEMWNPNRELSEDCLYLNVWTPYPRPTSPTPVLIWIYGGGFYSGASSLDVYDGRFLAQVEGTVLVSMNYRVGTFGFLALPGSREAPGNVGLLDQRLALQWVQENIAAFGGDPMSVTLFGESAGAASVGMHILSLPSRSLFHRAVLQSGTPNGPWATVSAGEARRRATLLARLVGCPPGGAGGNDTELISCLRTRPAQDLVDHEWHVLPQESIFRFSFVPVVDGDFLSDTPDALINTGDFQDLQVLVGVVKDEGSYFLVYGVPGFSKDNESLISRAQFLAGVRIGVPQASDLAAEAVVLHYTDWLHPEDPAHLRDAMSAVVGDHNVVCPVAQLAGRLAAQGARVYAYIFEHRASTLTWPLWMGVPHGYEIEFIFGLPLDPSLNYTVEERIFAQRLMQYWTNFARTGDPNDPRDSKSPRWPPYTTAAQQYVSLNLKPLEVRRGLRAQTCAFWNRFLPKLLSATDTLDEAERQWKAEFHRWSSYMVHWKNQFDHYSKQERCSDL
Protocol: To determine kinetic constants of irreversible inhibition, cholinesterase from rat brain homogenates was incubated with the multifunctional compounds of the invention for designed time intervals in phosphate buffer pH 7.4.
The residual cholinesterase activity was immediately measured with the Ellman's colorimetric method after addition of 5,5′-dithiobis(2-nitrobenzoic) acid and 1 mM acetylthiocholine iodide. The inhibition kinetics were assessed according to Kitz-Wilson equation:
[formula] wherein: E represents the enzyme; I represents the intact carbamate (inhibitor); EI is the initial reversible enzyme complex; E* is the carbamylated enzyme; Ki represents the dissociation constant for EI; k+2 is the carbamylation rate constant and k+3 is the decarbamylation rate constant; kapp is the pseudo-first-order inhibition rate constant; ki, the second-order rate inhibition constant, is approximated by k+2/Ki. Under experimental condition [I]>>[E0].
According to equation (2), the logarithm of the ratio of the residual cholinesterase activity (E) and the initial cholinesterase activity (E0) is plotted against the time of incubation. The slopes of the lines representing kapp were determined by linear regression.
The slopes of the lines represent the pseudo-first-order inhibition rate constant (kapp) determined from linear regression analysis. […] The carbamylation rate constant (k+2) was obtained from the y-intercept, and the dissociation constant ([…] was obtained from the slope of the line multiplied by k+2 as described in Materials and Methods.
From these lines, the values of kapp were calculated based on Equation (2) of the Kitz-Wilson equations (see Material and Methods). […] The carbamylation rate constant k+2 is a measure of inactivation of ChE.

rat brain MAO-B = biological target: T2, rat brain MAO-B (Rattus norvegicus, UniProt P19643); experiment: biochemical; conditions: for inhibition at 10 µM: read-out: percent inhibition MAO-B
T2 construct: from tissue; host or cells: rat brain homogenate
T2 sequence (P19643 1-520): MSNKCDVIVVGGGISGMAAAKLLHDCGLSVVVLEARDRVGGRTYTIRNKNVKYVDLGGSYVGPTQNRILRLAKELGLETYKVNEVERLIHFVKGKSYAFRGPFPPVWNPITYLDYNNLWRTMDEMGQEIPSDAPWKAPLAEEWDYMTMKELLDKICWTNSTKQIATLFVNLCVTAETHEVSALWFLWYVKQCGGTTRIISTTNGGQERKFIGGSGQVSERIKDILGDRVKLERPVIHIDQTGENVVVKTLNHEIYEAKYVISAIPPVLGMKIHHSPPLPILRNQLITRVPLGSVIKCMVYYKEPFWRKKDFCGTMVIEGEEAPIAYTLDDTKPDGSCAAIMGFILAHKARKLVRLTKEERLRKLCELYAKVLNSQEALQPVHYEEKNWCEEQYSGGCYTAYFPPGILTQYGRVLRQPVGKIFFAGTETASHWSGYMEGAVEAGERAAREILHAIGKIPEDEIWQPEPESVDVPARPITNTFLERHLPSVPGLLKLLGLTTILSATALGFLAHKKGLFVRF
Protocol: (§1) Rats were decapitated and the brains were quickly taken into a pre-weighted ice-cold sucrose buffer (10 mM Tris-HCl buffer, pH 7.4, containing 0.32 M sucrose), and their weights were measured. The brains were homogenized at 0-4° C. in 0.32 M sucrose (one part tissue to 20 parts sucrose) in a Teflon glass homogenizer. The resultant homogenates were used to determine MAO activity. Protein concentration was determined with Bradford reagent at 595 nm, using bovine serum albumin as a standard.
(§2) The activity of MAO-A and MAO-B were determined by the adapted method of Tipton & Youdim (Tipton et al. 1983). Briefly, the multifunctional compound tested was added to a suitable dilution of the enzyme preparation (70 μg MAO-B and 150 μg MAO-A) in 0.05 M phosphate buffer (pH 7.4). The mixture was incubated together with 0.05 μM 1-deprenyl, a specific inhibitor of MAO-B (for determination of MAO-A activity in the presence of the test compound) or 0.05 μM clorgyline a specific inhibitor of MAO-A (for determination of MAO-B activity). […] The reaction was stopped with 2M ice-cold citric acid, and the radioactive metabolites (5-hydroxytryptaldehyde and phenylacetaldehyde) were extracted by addition of 2 ml of ethylacetate/toluene (1:1 vol/vol). The radioactivity contained in the organic phase was determined by liquid-scintillation counting in cpm units.
(§3) MAO-A and MAO-B activities were determined in rat brain homogenate in vitro following incubation with varying concentrations of the test compounds.
(§4) The results are the mean SEM, n=3 in triplicates.

rat brain MAO-A = biological target: T3, rat brain MAO-A (Rattus norvegicus, UniProt P21396); experiment: biochemical; conditions: for IC50: IC50 MAO-A, rat brain homogenate in vitro, mean SEM, n=3 in triplicates
T3 construct: from tissue; host or cells: rat brain homogenate
T3 sequence (P21396 1-526): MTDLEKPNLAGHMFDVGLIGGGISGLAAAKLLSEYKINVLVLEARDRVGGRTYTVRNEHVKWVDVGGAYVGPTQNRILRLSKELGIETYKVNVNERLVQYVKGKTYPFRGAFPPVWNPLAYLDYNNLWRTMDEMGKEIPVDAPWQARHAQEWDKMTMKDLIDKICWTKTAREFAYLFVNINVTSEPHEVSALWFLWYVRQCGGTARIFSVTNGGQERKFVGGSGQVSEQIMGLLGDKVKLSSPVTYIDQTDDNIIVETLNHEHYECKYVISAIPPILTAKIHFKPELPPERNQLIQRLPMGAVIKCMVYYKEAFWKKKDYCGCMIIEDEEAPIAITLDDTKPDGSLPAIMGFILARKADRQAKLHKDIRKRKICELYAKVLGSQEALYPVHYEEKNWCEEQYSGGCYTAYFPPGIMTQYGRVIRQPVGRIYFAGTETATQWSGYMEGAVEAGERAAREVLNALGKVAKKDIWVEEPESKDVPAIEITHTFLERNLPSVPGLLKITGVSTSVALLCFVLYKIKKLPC
Protocol: as §1, §2, §3, §4

[2] = biological target: T4, total cholinesterase (ChE) (Rattus norvegicus, UniProt P37136); experiment: Total cholinesterase inhibition in rat brain homogenates (Ellman); assay type: biochemical
T4 sequence (P37136 32-614): T1 sequence (P37136 32-614)
Protocol: Cholinesterase activity was determined in rat brain homogenate following incubation with varying concentrations of the multifunctional pro-chelators of the invention (also referred to herein as “carbamates”).
Ellman's colorimetric method was adapted for determination of total cholinesterase (ChE) and butyrylcholinesterase (BuChE) activities in rat brain homogenates. Brain tissue from adult Wistar rats was homogenized at 2% w/v (or 10% w/v, for BuChE) in 0.1 M sodium phosphate buffer, pH 7.4, with added NaCl 58.5 g/l and Triton X-100 0.05% v/v. Aliquots of homogenate (20 μl) were incubated with the test compounds for designed time intervals in phosphate buffer pH 7.4, before addition of 5,5′-dithiobis(2-nitrobenzoic) acid and either 1 mM acetylthiocholine iodide or 10 mM butyrylthiocholine iodide (Sigma, St. Louis, Mo.). The reaction was run at 37° C. in a final volume of […] in 96-well microplates and was followed at 412 nm for 5 min with a plate reader. In every experiment, cholinesterase-independent (nonspecific) substrate hydrolysis was determined by including one experimental group treated with tacrine 30 μM. Appropriate tissue and reagent blanks were also included. Reaction velocities were determined in three or four replicates per condition; these were averaged and expressed as percent activity relative to control (solvent), after subtracting the rate of nonspecific hydrolysis.
The results are the mean SEM, n=3 in triplicates. ND—not determined.

[3] = Metal chelation assay (UV-vis spectra of metal complexes); assay type: physicochemical; conditions: ZnCl2, CuSO4, FeCl3 and FeSO4; 5% NH4Ac, pH=7
Excerpt: Metal chelation, particularly iron chelation, is an important precondition for the antioxidative-function of the multi-functional compounds of the invention, because it is the excessive iron stores and iron-mediated generation of free radicals in the brain that are thought to be associated with neurodegenerative diseases. The novel strategy, according to the present invention, for the treatment of neurodegenerative diseases such as Alzheimer's disease is the design of pro-chelators that inhibit AChE with a concomitant release of the active chelators. This novel strategy has advantages over the current chelator strategy since it is capable not only of minimizing the potential toxicity associated with strong chelators such as the 8-hydroxyquinoline derivatives disclosed in WO 2004/041151, which might interfere with healthy metal metabolism in the brain, but it also offers multiple activities against AChE, Aβ aggregation, oxidative stress, and metal (Fe, Cu, Zn) dyshomeostasis in the brain. Therefore, a metal chelation assay was used to confirm that the new multifunctional pro-chelators that comprise an N,N-dialkylcarbamoyl moiety [N(RR′)CO—] linked to the oxygen at position 8 of quinoline would have little to no affinity for metal ions in their pro-drug form. When these pro-chelators bind to cholinesterase or AChE in the brain, the N,N-dialkylcarbamoyl moiety is dissociated, thus unmasking a free hydroxyl group at said position 8 of quinoline, turning the pro-chelators into active chelators, which passivate excess cerebral metal ions and protect neuronal cells against reactive oxygen species (ROS).
A spectrophotometric method was used for measurement of metal complexes of the multifunctional pro-chelators of the invention with metal ions selected from Zn^2+, Cu^2+, Fe^3+ and Fe^2+, and compared to the respective metal complexes of some known iron chelators disclosed in WO 2004/041151.
Thus, the metal chelating function of compound 13 and compound 23 as compared to M30 and HLA20, respectively, was measured by dissolving 0.1 mM or 0.2 mM of the test compounds in 5% NH4Ac, pH=7, in the presence and absence of 0.1 mM or 0.2 mM of the metal salts […], CuSO4, FeCl3 and FeSO4, and measuring the UV-vis spectra (Hewlett-Packard 8450A diode array spectrophotometer) of the various metal complexes formed. The results for M30 and compound 13 are shown in FIGS. 1A and 1B, respectively.

[4] = system: human SH-SY5Y neuroblastoma cells; experiment: MTT cell viability assay in SH-SY5Y cells; assay type: cell-based; conditions: MTT after 48 h incubation
Protocol: Cell culture. Human neuroblastoma SH-SY5Y cells were obtained from American Type Culture Collection (Rockville, Md., USA). Cells were routinely cultured in MEM-Eagle/F-12(HAM) (1:1), containing 10% FCS and a mixture of 2% sodium bicarbonate, 1% penicillin/streptomycin/nystatin and 1% sodium pyruvate. Cell cultures were incubated at 37° C. in a humid 5% CO2-95% air environment.
Twenty-four hours after attachment of the SH-SY5Y cells, the medium was replaced with DMEM containing 0.1% BSA. The test compounds were added to the cells after 1 h of incubation. After 24 h incubation, the cells were subjected to MTT test as previously described (Gassen et al., 1998). The absorption was determined in a Perkin-Elmer Dual Wavelength Eliza-Reader at λ=570/650 nm after automatic subtraction of background readings. The results are expressed as percentage of the untreated control.
The effect of the iron chelators M30 and HLA20 versus that of the pro-chelators 13 and 23, on viability of human SH-SY5Y cells was tested. Human SH-SY5Y neuroblastoma cells were plated in 100-mm culture dishes and cultured in DMEM (4,500 mg/l glucose), containing 10% FCS (fetal calf serum, Bet Haemek, Israel), and 1% of a mixture of penicillin/streptomycin/nystatin. When cells reached the required confluence, they were detached and re-cultured in microtiter plates (96 wells) pre-coated with collagen ([…]), in DMEM with 10% of fetal calf serum (0.5×10^4 cells/well). Cell viability was tested by the 3-(4,5-dimethylthiazol-2-yl)-2,5-diphenyltetrazolium (MTT) assays after 48 h incubation.

[5] = system: ChE from rat brain homogenates; experiment: Time course of total ChE inhibition at 1 μM versus rivastigmine; assay type: biochemical; conditions: 1 μM, time course
Protocol: The new carbamates of the present invention are expected to act as rivastigmine and inhibit ChE activity. […] Enzyme activity was determined with Ellman's colorimetric method after addition of substrate, and the results are shown in FIGS. 8A-8B.

SMILES	potency in inhibiting ChE relative to rivastigmine ([1]; from ki)	kinact/KI ([1]; pH 7.4, read-out: ki (second-order rate inhibition constant, approximated by k+2/Ki)) [M⁻¹ s⁻¹]	inhibition at 10 µM (rat brain MAO-B) [%]	IC50 (rat brain MAO-A) [nM]	inhibition at 50 µM ([2]; read-out: percent inhibition Total ChE) [%]	binding of metal ions (shift of absorbance peak) [3]	cell viability ([4]; 10 μM) [%]	cell viability ([4]; 25 μM) [%]	cell viability ([4]; 50 μM)	inhibitory effect on MAO-B (rat brain MAO-B; rat brain homogenate)	inhibitory effect on MAO-A (rat brain MAO-A; rat brain homogenate)	ChE inhibition compared with rivastigmine and other carbamates [5]	IC50 ([2]; rat brain homogenates, mean SEM, n=3 in triplicates) [nM]
C#CCN(C)Cc1ccc(OC(=O)NCCCCCC)c2ncccc12 [Compound 4, 5-((methyl(propargyl)amino)methyl)quinolin-8-yl hexylcarbamate]	half potent	39	25	< 100	43								
C#CCN1CCN(Cc2ccc(O)c3ncccc23)CC1 [HLA20, reference compound]						binds the respective metal ions	≤ 75	≤ 75	almost all the cells died	minor to none inhibitory effects	minor to none inhibitory effects		
C#CCN(C)Cc1ccc(OC(=O)N(C)C)c2ncccc12 [Compound 2, 5-((methyl(propargyl)amino)methyl)quinolin-8-yl dimethylcarbamate]			67	< 100								more potent than	520
